Results as given in US20240158392A1 (Janssen Biotech, Inc., priority 2021, published 2024).

Biological target: SIK2 (Homo sapiens, UniProt Q9H0K1)
Test: SIK2 Enzymatic Assay High Version 2 (High ATP)
Type: biochemical
Conditions: not given
Procedure, shortened: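 At room temperature, enzyme (6 nM, 2× final) was preincubated with compound for 30 min, then 6 mM ATP and 400 μM HDAC5tide (both 2× final) were added for 2 h. ADP formed was measured by ADP-Glo Max (2 h reagent, 1 h detection) using luminescence.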

Sequence of SIK2 (Q9H0K1 whole entry, species assumed): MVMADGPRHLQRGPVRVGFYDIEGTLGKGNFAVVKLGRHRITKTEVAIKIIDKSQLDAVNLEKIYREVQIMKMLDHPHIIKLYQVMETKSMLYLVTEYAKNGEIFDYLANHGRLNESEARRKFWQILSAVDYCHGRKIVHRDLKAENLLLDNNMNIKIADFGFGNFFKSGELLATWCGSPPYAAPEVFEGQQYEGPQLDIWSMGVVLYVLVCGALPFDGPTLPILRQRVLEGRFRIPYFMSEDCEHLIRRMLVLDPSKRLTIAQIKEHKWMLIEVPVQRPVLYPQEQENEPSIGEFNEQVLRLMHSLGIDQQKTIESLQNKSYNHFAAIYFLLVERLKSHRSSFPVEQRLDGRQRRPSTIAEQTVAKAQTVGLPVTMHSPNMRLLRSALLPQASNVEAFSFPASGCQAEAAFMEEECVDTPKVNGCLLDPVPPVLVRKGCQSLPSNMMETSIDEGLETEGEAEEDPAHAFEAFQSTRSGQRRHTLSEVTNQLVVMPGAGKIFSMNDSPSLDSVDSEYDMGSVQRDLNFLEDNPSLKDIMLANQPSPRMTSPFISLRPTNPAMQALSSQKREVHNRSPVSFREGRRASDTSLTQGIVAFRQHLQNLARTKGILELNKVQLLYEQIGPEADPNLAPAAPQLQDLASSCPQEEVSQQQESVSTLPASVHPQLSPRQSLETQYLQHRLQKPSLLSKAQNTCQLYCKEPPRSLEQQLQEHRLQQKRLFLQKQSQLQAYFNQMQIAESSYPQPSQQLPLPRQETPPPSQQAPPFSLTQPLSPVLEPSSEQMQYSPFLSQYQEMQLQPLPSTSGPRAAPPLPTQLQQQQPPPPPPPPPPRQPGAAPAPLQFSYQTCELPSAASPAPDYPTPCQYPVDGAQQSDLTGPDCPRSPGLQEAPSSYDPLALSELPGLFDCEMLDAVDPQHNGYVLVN

Row | Molecule | IC50 [µM]
1 | Cc1cc(-c2ccn3nc(Nc4ccc(C5CC5)nn4)cc3c2)c(O[C@@H]2[C@@H]3CO[C@H]2CN3)cn1 [Example 525, N-(6-cyclopropylpyridazin-3-yl)-5-[2-methyl-5-[[(1S,4S,7R)-2-oxa-5-azabicyclo[2.2.1]heptan-7-yl]oxy]-4-pyridyl]pyrazolo[1,5-a]pyridin-2-amine] | 0.0594
2 | Cc1cc(-c2ccn3nc(Nc4ccc(C(=O)NCCO)cn4)cc3c2)c(O[C@H]2C[C@H]3COC[C@@H](C2)N3)cn1 [Example 369, N-(2-hydroxyethyl)-6-[[5-[2-methyl-5-[[(1S,5R,7s)-3-oxa-9-azabicyclo[3.3.1]nonan-7-yl]oxy]-4-pyridyl]pyrazolo[1,5-a]pyridin-2-yl]amino]pyridine-3-carboxamide] | 0.00164
3 | Cc1cc(-c2ccn3nc(Nc4cc(C)nc(C)n4)cc3c2)c(OC[C@@H]2COC(=O)N2)cn1 [Example 342, (4R)-4-[[4-[2-[(2,6-dimethylpyrimidin-4-yl)amino]pyrazolo[1,5-a]pyridin-5-yl]-6-methyl-3-pyridyl]oxymethyl]oxazolidin-2-one] | 0.032
4 | Cc1cc(-c2ccn3nc(NC(=O)C4CC4)cc3c2)c(O[C@@H]2CN(C)[C@@H]2C)cn1 (relative stereo) [Example 455, *R, *R—N-[5-[5-(1,2-dimethylazetidin-3-yl)oxy-2-methyl-4-pyridyl]pyrazolo[1,5-a]pyridin-2-yl]cyclopropanecarboxamide] | 0.0356
5 | Cc1cc(-c2ccn3nc(NC(=O)C4CC4)cc3c2)c(OC[C@@H]2CCN2C)cn1 [Example 512, N-[5-[2-methyl-5-[[(2S)-1-methylazetidin-2-yl]methoxy]-4-pyridyl]pyrazolo[1,5-a]pyridin-2-yl]cyclopropanecarboxamide] | 0.0347
6 | Cc1cc(-c2cn3cc(NC(=O)C4CC4)nc3cn2)c(O[C@H]2C[C@H]3COC[C@@H](C2)N3)cn1 [Example 505, N-[6-[2-methyl-5-[[(1S,5R)-3-oxa-9-azabicyclo[3.3.1]nonan-7-yl]oxy]-4-pyridyl]imidazo[1,2-a]pyrazin-2-yl]cyclopropanecarboxamide] | 0.012
7 | Cc1cc(-c2ccn3nc(Nc4cc(C(=O)NC(C)C)n(C)n4)cc3c2)c(O[C@H]2C[C@H]3COC[C@@H](C2)N3)cn1 [Example 341, N-isopropyl-2-methyl-5-[[5-[2-methyl-5-[[(1S,5R)-3-oxa-9-azabicyclo[3.3.1]nonan-7-yl]oxy]-4-pyridyl]pyrazolo[1,5-a]pyridin-2-yl]amino]pyrazole-3-carboxamide] | < 0.000847
8 | O=C(Nc1cc2cc(-c3cc(Cl)ncc3O[C@@H]3C[C@H]4COC[C@@H](C3)N4)ccn2n1)C1CC1 [Example 492, N-[5-[2-chloro-5-[[(1S,5R)-3-oxa-9-azabicyclo[3.3.1]nonan-7-yl]oxy]-4-pyridyl]pyrazolo[1,5-a]pyridin-2-yl]cyclopropanecarboxamide] | 0.0516
9 | Cc1cc(-c2cn3cc(Nc4cncc(C)n4)nc3cn2)c(O[C@H]2C[C@H]3COC[C@@H](C2)N3)cn1 [Example 321, 6-[2-methyl-5-[[(1S,5R)-3-oxa-9-azabicyclo[3.3.1]nonan-7-yl]oxy]-4-pyridyl]-N-(6-methylpyrazin-2-yl)imidazo[1,2-a]pyrazin-2-amine] | < 0.000847

Same assay, conditions: enzyme 6 nM, 6 mM ATP and 400 μM HDAC5tide (each 2× final concentration); 30 minutes pre-incubation, 2 hours; ADP-Glo Max luminescence; read-out: SIK2 high ATP IC50 (μM) (Test Example 2)

Row | Molecule | IC50 [µM]
10 | Cc1cc(-c2ccn3nc(Nc4cncc(C)n4)cc3c2)c(OC[C@H]2OCC[C@@H]2O)cn1 [Example 297, (2R,3S)-2-[[6-methyl-4-[2-[(6-methylpyrazin-2-yl)amino]pyrazolo[1,5-a]pyridin-5-yl]-3-pyridyl]oxymethyl]tetrahydrofuran-3-ol] | 0.00781
11 | Cc1cc(-c2cn3cc(NC(=O)C4CC4)nc3cn2)c(O[C@H]2CC[C@H](O)CC2)cn1 [Example 653, N-[6-[5-(4-hydroxycyclohexoxy)-2-methyl-4-pyridyl]imidazo[1,2-a]pyrazin-2-yl]cyclopropanecarboxamide] | 0.136
12 | Cc1cc(-c2ccn3nc(NC(=O)C4CC4)cc3c2)c(OC[C@@]2(C#N)CCN(C)C2)cn1 (single isomer, unassigned) [Example 212, (*S)—N-[5-[5-[(3-cyano-1-methyl-pyrrolidin-3-yl)methoxy]-2-methyl-4-pyridyl]pyrazolo[1,5-a]pyridin-2-yl]cyclopropanecarboxamide] | 0.0472
13 | COc1cc(Nc2cc3cc(-c4cc(C)ncc4O[C@H]4CC[C@H](O)CC4)ccn3n2)cc(OC)c1C(=O)NC1CC1 [Example 245, N-cyclopropyl-4-[[5-[5-(4-hydroxycyclohexoxy)-2-methyl-4-pyridyl]pyrazolo[1,5-a]pyridin-2-yl]amino]-2,6-dimethoxy-benzamide] | 0.0239
14 | Cc1cc(-c2ccn3nc(Nc4cc(C)nc(N5CCOCC5)n4)cc3c2)c(O[C@H]2CC[C@H](O)CC2)cn1 [Example 288, 4-[[6-methyl-4-[2-[(6-methyl-2-morpholino-pyrimidin-4-yl)amino]pyrazolo[1,5-a]pyridin-5-yl]-3-pyridyl]oxy]cyclohexanol] | 0.00696
15 | Cc1cc(-c2ccn3nc(NC(=O)C4CC4)cc3c2)c(O[C@H]2CC[C@](C)(O)CC2)cn1 [Example 151, trans-N-(5-(5-(((1r,4r)-4-hydroxy-4-methylcyclohexyl)oxy)-2-methylpyridin-4-yl)pyrazolo[1,5-a]pyridin-2-yl)cyclopropanecarboxamide] | 0.00378
16 | N#Cc1cc(-c2ccn3nc(NC(=O)C4CC4)cc3c2)c(OC[C@H]2C[C@@H](NCc3ccccc3)C2)cn1 [Example 599, N-[5-[5-[[3-(benzylamino)cyclobutyl]methoxy]-2-cyano-4-pyridyl]pyrazolo[1,5-a]pyridin-2-yl]cyclopropanecarboxamide] | 0.141
17 | Cc1cc(-c2ccn3nc(NC(=O)C4CC4)cc3c2)c(OC2CCC(=NO)CC2)cn1 (centres unmarked) [Example 199, N-[5-[5-(4-hydroxyiminocyclohexoxy)-2-methyl-4-pyridyl]pyrazolo[1,5-a]pyridin-2-yl]cyclopropanecarboxamide] | 0.0502
18 | Cc1cc(-c2ccn3nc(Nc4cc(C)nc(C)n4)cc3c2)c(OC2CCC(S(C)(=O)=O)CC2)cn1 (centres unmarked) [Example 551, N-(2,6-dimethylpyrimidin-4-yl)-5-[2-methyl-5-(4-methylsulfonylcyclohexoxy)-4-pyridyl]pyrazolo[1,5-a]pyridin-2-amine] | 0.00832
19 | Cc1cnc(Nc2cc3cc(-c4cc(C)ncc4OC[C@@]45CN[C@@H](CO4)C5)ccn3n2)cn1 [Example 257, 5-[2-methyl-5-[[(1R,4R)-5-oxa-2-azabicyclo[2.2.1]heptan-4-yl]methoxy]-4-pyridyl]-N-(5-methylpyrazin-2-yl)pyrazolo[1,5-a]pyridin-2-amine] | 0.00446
20 | N-[5-[2-cyano-5-[[(1R,5S,7s)-9-methyl-3-oxa-9-azabicyclo[3.3.1]nonan-7-yl]oxy]-4-pyridyl]pyrazolo[1,5-a]pyridin-2-yl]cyclopropanecarboxamide [Example 656] | 0.132

More lines, now with the values ahead:

Row | IC50 [µM] | Molecule
21 | 0.0179 | Cc1cc(-c2ccn3nc(Nc4cc(C)nc(C)n4)cc3c2)c(OC[C@H]2C[C@H](C#N)C2)cn1 [Example 686, 3-[[4-[2-[(2,6-dimethylpyrimidin-4-yl)amino]pyrazolo[1,5-a]pyridin-5-yl]-6-methyl-3-pyridyl]oxymethyl]cyclobutanecarbonitrile]
22 | 0.087 | Cc1cc(-c2ccn3nc(Nc4cc(C)nc(C)n4)cc3c2)c(OC[C@H]2C[C@@H](O)CO2)cn1 [Example 204, (3R,5R)-5-[[4-[2-[(2,6-dimethylpyrimidin-4-yl)amino]pyrazolo[1,5-a]pyridin-5-yl]-6-methyl-3-pyridyl]oxymethyl]tetrahydrofuran-3-ol]
23 | 0.063 | CNc1nc(C)cc(Nc2cc3cc(-c4cc(O)ncc4OCC(C)(C)C#N)ccn3n2)n1 [Example 674, 3-[[6-hydroxy-4-[2-[[6-methyl-2-(methylamino)pyrimidin-4-yl]amino]pyrazolo[1,5-a]pyridin-5-yl]-3-pyridyl]oxy]-2,2-dimethyl-propanenitrile]
24 | 0.184 | Cc1cc(Nc2cc3cc(-c4cc(OCC(F)F)ncc4OCC(C)(C)C#N)ccn3n2)nc(C)n1 [Example 660, 3-[[6-(2,2-difluoroethoxy)-4-[2-[(2,6-dimethylpyrimidin-4-yl)amino]pyrazolo[1,5-a]pyridin-5-yl]-3-pyridyl]oxy]-2,2-dimethyl-propanenitrile]
25 | 0.01 | Cc1cc(-c2ccn3nc(Nc4cc(C)nc(C)n4)cc3c2)c(OCCC2(C#N)COC2)cn1 [Example 722, 3-[2-[[4-[2-[(2,6-dimethylpyrimidin-4-yl)amino]pyrazolo[1,5-a]pyridin-5-yl]-6-methyl-3-pyridyl]oxy]ethyl]oxetane-3-carbonitrile]
26 | 0.0058 | CC(=O)NC(C)(C)COc1cnc(C)cc1-c1ccn2nc(Nc3cc(C)nc(C)n3)cc2c1 [Example 360, N-[2-[[4-[2-[(2,6-dimethylpyrimidin-4-yl)amino]pyrazolo[1,5-a]pyridin-5-yl]-6-methyl-3-pyridyl]oxy]-1,1-dimethyl-ethyl]acetamide]
27 | 0.00127 | CCc1nc(C)cc(Nc2cc3cc(-c4cc(C)ncc4O[C@H]4CC[C@H](O)CC4)ccn3n2)n1 [Example 224, (1r,4r)-4-((4-(2-((2-ethyl-6-methylpyrimidin-4-yl)amino)pyrazolo[1,5-a]pyridin-5-yl)-6-methylpyridin-3-yl)oxy)cyclohexan-1-ol]
28 | 0.0145 | Cc1cc(-c2ccn3nc(Nc4cc(C)nc(C)n4)cc3c2)c(O[C@H]2COC[C@H]2C)cn1 (single isomer, unassigned) [Example 534, (3*R, 4*R)—N-(2,6-dimethylpyrimidin-4-yl)-5-[2-methyl-5-(4-methyltetrahydrofuran-3-yl)oxy-4-pyridyl]pyrazolo[1,5-a]pyridin-2-amine]
29 | < 0.000847 | CNc1nc(C)cc(Nc2cc3cc(-c4cc(C)ncc4OCC(C)(C)C#N)ccn3n2)n1 [Example 309, 2,2-dimethyl-3-[[6-methyl-4-[2-[[6-methyl-2-(methylamino)pyrimidin-4-yl]amino]pyrazolo[1,5-a]pyridin-5-yl]-3-pyridyl]oxy]propanenitrile]
